Assay results published in the NIST ThermoML archive (doi:10.1021/acs.jced.8b01159).
“And” between values parts separate entries of the source, which are not always exact repeats. Equal entries are not always repeated.

What was measured:
[1] = Liquid, Closed cell (Static) method
[2] = molar heat capacity at constant pressure; conditions: 100 kPa, Liquid, Extra sensitive DSC

CCN1CCOCC1 [4-ethylmorpholine]
Conditions	molar heat capacity at constant pressure [J/K/mol]	vapor or sublimation pressure
[1], 243.11 K	–	0.01727 kPa
[1], 243.12 K	–	0.01728 kPa and 0.01725 kPa
[1], 248.15 K	–	0.0276 kPa and 0.02761 kPa
[1], 253.15 K	–	0.0431 kPa and 0.04308 kPa
[1], 253.16 K	–	0.04305 kPa
[1], 258.15 K	–	0.06592 kPa
[1], 258.16 K	–	0.06592 kPa and 0.06589 kPa
[1], 263.16 K	–	0.09902 kPa and 0.09898 kPa and 0.09893 kPa
[1], 268.16 K	–	0.1459 kPa and 0.146 kPa
[1], 273.17 K	–	0.2112 kPa and 0.2111 kPa
[1], 278.16 K	–	0.3025 kPa
[1], 278.17 K	–	0.3027 kPa and 0.3026 kPa
[1], 283.17 K	–	0.4244 kPa and 0.4243 kPa
[1], 288.17 K	–	0.5882 kPa and 0.5883 kPa and 0.5881 kPa
[1], 293.16 K	–	0.8046 kPa and 0.8045 kPa
[1], 298.17 K	–	1.086 kPa and 1.085 kPa
[2], 270 K	198.1	–
[2], 275 K	199.6	–
[2], 280 K	201.1	–
[2], 285 K	202.8	–
[2], 290 K	204.5	–
[2], 295 K	206.4	–
[2], 300 K	208.2	–
[2], 305 K	209.9	–
[2], 310 K	211.6	–
[2], 315 K	213.4	–
[2], 320 K	215.5	–
[2], 325 K	217.7	–
[2], 330 K	219.9	–
[2], 335 K	221.9	–
[2], 340 K	223.8	–
[2], 345 K	225.9	–
[2], 350 K	228	–
[2], 355 K	230.2	–
